Test results as given in publication PMC7973766, “Characterization of zebrafish GABAA receptor subunits” (Scientific Reports, 2021).

Columns and labels:
Assay type in all cases: cell-based
[1] = target: T1, zebrafish β1 homopentameric GABAA receptor (Danio rerio, UniProt F1QPW7); assay: two-electrode voltage clamp, Xenopus oocytes, GABA-evoked current; settings: agonist at 10 mM only; -50 mV, pH 7.5
T1 construct: gene gabrb1; homopentamer
T1 sequence (F1QPW7 29-484): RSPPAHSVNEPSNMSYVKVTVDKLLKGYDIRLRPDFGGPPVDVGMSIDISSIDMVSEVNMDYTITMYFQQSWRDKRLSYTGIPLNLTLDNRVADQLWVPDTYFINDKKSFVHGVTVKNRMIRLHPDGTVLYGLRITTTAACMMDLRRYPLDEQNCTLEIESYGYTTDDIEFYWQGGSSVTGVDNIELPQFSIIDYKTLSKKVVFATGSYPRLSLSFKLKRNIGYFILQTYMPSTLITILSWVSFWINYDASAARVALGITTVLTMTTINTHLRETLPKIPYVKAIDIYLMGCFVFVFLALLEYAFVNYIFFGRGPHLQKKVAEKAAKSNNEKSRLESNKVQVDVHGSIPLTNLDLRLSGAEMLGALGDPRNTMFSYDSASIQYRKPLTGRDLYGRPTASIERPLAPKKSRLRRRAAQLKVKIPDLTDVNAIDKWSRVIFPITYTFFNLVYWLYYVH

[2] = target: T2, zebrafish β4 homopentameric GABAA receptor (Danio rerio, UniProt A0A2R8QJR5); assay: as above; settings: agonist at 10 mM only; -50 mV, pH 7.5
T2 construct: gene gabrb4; homopentamer
T2 sequence (A0A2R8QJR5 26-482): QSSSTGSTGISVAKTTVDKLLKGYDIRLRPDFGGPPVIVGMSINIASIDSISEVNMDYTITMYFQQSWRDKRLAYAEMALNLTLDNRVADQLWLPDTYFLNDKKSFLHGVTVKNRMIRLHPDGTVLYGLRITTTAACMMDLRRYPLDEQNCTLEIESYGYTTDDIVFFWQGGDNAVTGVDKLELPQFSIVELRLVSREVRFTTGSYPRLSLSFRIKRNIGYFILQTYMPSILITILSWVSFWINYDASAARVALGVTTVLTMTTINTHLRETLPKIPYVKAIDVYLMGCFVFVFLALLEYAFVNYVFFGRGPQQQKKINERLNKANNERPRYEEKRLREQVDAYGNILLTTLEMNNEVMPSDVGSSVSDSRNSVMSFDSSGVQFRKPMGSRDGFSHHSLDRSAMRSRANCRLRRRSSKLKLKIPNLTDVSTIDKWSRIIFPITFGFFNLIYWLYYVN

[3] = target: T3, zebrafish β3 homopentameric GABAA receptor (Danio rerio, UniProt A0A0R4ILP2); assay: as above; settings: agonist at 10 mM only; -50 mV, pH 7.5
T3 construct: gene gabrb3; homopentamer
T3 sequence (A0A0R4ILP2 26-498): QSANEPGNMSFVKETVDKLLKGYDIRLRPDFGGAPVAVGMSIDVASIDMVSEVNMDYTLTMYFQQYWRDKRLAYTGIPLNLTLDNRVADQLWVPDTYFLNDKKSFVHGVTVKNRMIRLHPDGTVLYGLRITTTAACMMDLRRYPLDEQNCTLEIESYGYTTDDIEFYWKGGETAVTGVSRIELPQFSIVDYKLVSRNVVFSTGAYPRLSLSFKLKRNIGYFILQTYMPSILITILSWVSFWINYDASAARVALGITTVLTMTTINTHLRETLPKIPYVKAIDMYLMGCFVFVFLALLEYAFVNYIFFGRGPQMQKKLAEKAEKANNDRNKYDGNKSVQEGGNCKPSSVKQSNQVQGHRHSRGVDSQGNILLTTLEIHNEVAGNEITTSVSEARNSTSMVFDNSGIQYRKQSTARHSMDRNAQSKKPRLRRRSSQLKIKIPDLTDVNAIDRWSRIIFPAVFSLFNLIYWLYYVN

[4] = target: T3, zebrafish β3 homopentameric GABAA receptor; assay: two-electrode voltage clamp, Xenopus oocytes, etomidate-evoked current

Row | SMILES | two-electrode voltage clamp, Xenopus oocytes, GABA-evoked current [1] | two-electrode voltage clamp, Xenopus oocytes, GABA-evoked current [2] | two-electrode voltage clamp, Xenopus oocytes, GABA-evoked current [3] | EC50 [4] [µM]
1 | NCCCC(=O)O [GABA] | either single β subunit yielded small currents | either single β subunit yielded small currents | either single β subunit yielded small currents | –
2 | CCOC(=O)c1cncn1[C@H](C)c1ccccc1 [etomidate] | – | – | – | 30.3 ± 5.7
